“And” between values parts separate entries of the source, which are not always exact repeats. Equal entries are not always repeated. Toxic doses and inconclusive results are not listed.
System: P388 leukemia ip, CD2F1 mice, survival T/C
Test: NCI In Vivo Anticancer Drug Screen. Data for tumor model P388 Leukemia (intraperitoneal) in CD2F1 (CDF1) mice
Settings: endpoint: median survival time, higher = longer survival
In short: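 Mice carrying the transplanted tumor received test compound or vehicle. Survival was recorded in each group, and the value is the treated-group measurement divided by that of the vehicle-treated control group.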

[1] = dose: 50.0 mg/kg/injection, schedule: Q01DX005 (ip), vehicle: saline
[2] = dose: 100.0 mg/kg/injection, schedule: Q01DX005 (ip), vehicle: saline
[3] = dose: 200.0 mg/kg/injection, schedule: Q01DX005 (ip), vehicle: saline
[4] = dose: 60.0 mg/kg/injection, schedule: Q01DX005 (ip), vehicle: saline with Tween-80
[5] = dose: 120.0 mg/kg/injection, schedule: Q01DX005 (ip), vehicle: saline with Tween-80
[6] = dose: 240.0 mg/kg/injection, schedule: Q01DX005 (ip), vehicle: saline with Tween-80
[7] = dose: 100.0 mg/kg/injection, schedule: Q01DX009 (ip), vehicle: saline with Tween-80
[8] = dose: 50.0 mg/kg/injection, schedule: Q01DX005 (ip), vehicle: saline with Tween-80
[9] = dose: 100.0 mg/kg/injection, schedule: Q01DX005 (ip), vehicle: saline with Tween-80
[10] = dose: 200.0 mg/kg/injection, schedule: Q01DX005 (ip), vehicle: saline with Tween-80
[11] = dose: 60.0 mg/kg/injection, schedule: Q01DX005 (ip), vehicle: Klucel (hydroxypropylcellulose) (HPC)
[12] = dose: 120.0 mg/kg/injection, schedule: Q01DX005 (ip), vehicle: Klucel (hydroxypropylcellulose) (HPC)
[13] = dose: 240.0 mg/kg/injection, schedule: Q01DX005 (ip), vehicle: Klucel (hydroxypropylcellulose) (HPC)

SMILES: CCC(=O)O[C@H]1CC[C@H]2[C@@H]3C[C@H](C)C4=CC(=O)C=C[C@]4(C)[C@H]3C(=O)C[C@]12C
- T/C (dose: 100.0 mg/kg/injection, schedule: Q04DX003 (ip), vehicle: saline with Tween-80): 90 % of control
- T/C (dose: 200.0 mg/kg/injection, schedule: Q04DX003 (ip), vehicle: saline with Tween-80): 104 % of control
- T/C (dose: 400.0 mg/kg/injection, schedule: Q04DX003 (ip), vehicle: saline with Tween-80): 100 % of control

SMILES: S=C1CCNCC1
- T/C (dose: 3.13 mg/kg/injection, schedule: Q04DX003 (ip), vehicle: saline): 100 % of control
- T/C (dose: 6.25 mg/kg/injection, schedule: Q04DX003 (ip), vehicle: saline): 104 % of control
- T/C (dose: 12.5 mg/kg/injection, schedule: Q04DX003 (ip), vehicle: saline): 100 % of control
- T/C (dose: 25.0 mg/kg/injection, schedule: Q04DX003 (ip), vehicle: saline): 100 % of control
- T/C (dose: 50.0 mg/kg/injection, schedule: Q04DX003 (ip), vehicle: saline): 90 % of control

SMILES: CC1=C[P+](c2ccccc2)(c2ccccc2)C=C(c2ccccc2)O1
- T/C (dose: 3.12 mg/kg/injection, schedule: Q01DX005 (ip), vehicle: saline): 105 % of control
- T/C (dose: 6.25 mg/kg/injection, schedule: Q01DX005 (ip), vehicle: saline): 122 % of control and 123 % of control
- T/C (dose: 12.5 mg/kg/injection, schedule: Q01DX005 (ip), vehicle: saline): 118 % of control

SMILES: Cc1cc2nc3c(C4OCC(O)C4O)nn(-c4ccccc4)c3nc2cc1C (stereo not drawn)
- T/C (dose: 3.12 mg/kg/injection, schedule: Q01DX005 (ip), vehicle: Klucel (hydroxypropylcellulose) (HPC)): 93 % of control
- T/C (dose: 6.25 mg/kg/injection, schedule: Q01DX005 (ip), vehicle: Klucel (hydroxypropylcellulose) (HPC)): 88 % of control
- T/C (dose: 50.0 mg/kg/injection, schedule: Q01DX005 (ip), vehicle: Klucel (hydroxypropylcellulose) (HPC)): 88 % of control
- T/C (dose: 100.0 mg/kg/injection, schedule: Q01DX005 (ip), vehicle: Klucel (hydroxypropylcellulose) (HPC)): 93 % of control
- T/C (dose: 200.0 mg/kg/injection, schedule: Q01DX005 (ip), vehicle: Klucel (hydroxypropylcellulose) (HPC)): 103 % of control

SMILES: COC(OC)(OC)OC
- T/C [1]: 104 % of control
- T/C [2]: 108 % of control
- T/C [3]: 109 % of control

SMILES: COc1cc(N)ccc1Nc1c2ccccc2nc2ccccc12
- T/C (dose: 12.5 mg/kg/injection, schedule: Q04DX002 (ip), vehicle: distilled water + Tween-80): 117 % of control
- T/C (dose: 50.0 mg/kg/injection, schedule: Q04DX002 (ip), vehicle: distilled water + Tween-80): 165 % of control
- T/C (dose: 100.0 mg/kg/injection, schedule: Q04DX002 (ip), vehicle: distilled water + Tween-80): 166 % of control and 185 % of control
- T/C (dose: 200.0 mg/kg/injection, schedule: Q04DX002 (ip), vehicle: distilled water + Tween-80): 194 % of control

SMILES: N#CC1Sc2ccccc2N1C(=O)Oc1ccccc1 (stereo not drawn)
- T/C [4]: 102 % of control
- T/C [5]: 106 % of control
- T/C [6]: 106 % of control

SMILES: Cc1nccc2cccc(CNC(C)C)c12
- T/C (dose: 100.0 mg/kg/injection, schedule: Q01DX001 (ip), vehicle: saline): 103 % of control
- T/C (dose: 200.0 mg/kg/injection, schedule: Q01DX001 (ip), vehicle: saline): 100 % of control

SMILES: CN1ON(c2ccc(Cl)c(Cl)c2)OC1=O
- T/C (dose: 12.5 mg/kg/injection, schedule: Q01DX009 (ip), vehicle: saline): 103 % of control
- T/C (dose: 25.0 mg/kg/injection, schedule: Q01DX009 (ip), vehicle: saline): 105 % of control
- T/C (dose: 50.0 mg/kg/injection, schedule: Q01DX009 (ip), vehicle: saline): 104 % of control and 109 % of control

SMILES: CC(C)CC(NC(=O)C(N)Cc1ccc(N(CCCl)CCCl)cc1)C(=O)O (stereo not drawn)
- T/C (dose: 3.7 mg/kg/injection, schedule: Q04DX003 (ip), vehicle: saline with Tween-80): 155 % of control and 172 % of control
- T/C (dose: 8.4 mg/kg/injection, schedule: Q04DX003 (ip), vehicle: saline with Tween-80): 187 % of control and 203 % of control
- T/C (dose: 12.6 mg/kg/injection, schedule: Q04DX003 (ip), vehicle: saline with Tween-80): 204 % of control and 272 % of control
- T/C (dose: 18.9 mg/kg/injection, schedule: Q04DX003 (ip), vehicle: saline with Tween-80): 108 % of control and 118 % of control
- T/C (dose: 32.0 mg/kg/injection, schedule: Q04DX003 (ip), vehicle: saline with Tween-80): 158 % of control
- T/C (dose: 42.6 mg/kg/injection, schedule: Q04DX003 (ip), vehicle: saline with Tween-80): 179 % of control
- T/C (dose: 64.0 mg/kg/injection, schedule: Q04DX003 (ip), vehicle: saline with Tween-80): 190 % of control and 198 % of control
- T/C (dose: 96.0 mg/kg/injection, schedule: Q04DX003 (ip), vehicle: saline with Tween-80): 243 % of control
- T/C (dose: 128.0 mg/kg/injection, schedule: Q04DX003 (ip), vehicle: saline with Tween-80): 88 % of control

SMILES: COc1ccc(C(C)c2cc3c(cc2OCCO)OCO3)cc1OC (stereo not drawn)
- T/C (dose: 50.0 mg/kg/injection, schedule: Q01DX005 (ip), vehicle: distilled water + Tween-80): 97 % of control
- T/C (dose: 100.0 mg/kg/injection, schedule: Q01DX005 (ip), vehicle: distilled water + Tween-80): 93 % of control
- T/C (dose: 200.0 mg/kg/injection, schedule: Q01DX005 (ip), vehicle: distilled water + Tween-80): 97 % of control

SMILES: Cc1cccc(CC(O)c2ccc(C=O)cc2)n1 (stereo not drawn)
- T/C [4]: 105 % of control
- T/C [5]: 98 % of control
- T/C [6]: 98 % of control

SMILES: CCCCCCCCCCCCCCCC(=O)NCCO
- T/C (dose: 33.0 mg/kg/injection, schedule: Q04DX003 (ip), vehicle: saline with Tween-80): 91 % of control
- T/C (dose: 75.0 mg/kg/injection, schedule: Q04DX003 (ip), vehicle: saline with Tween-80): 87 % of control

SMILES: CN1COC(OC2OCN(C)CC2(C)C)C(C)(C)C1 (stereo not drawn)
- T/C [7]: 160 % of control

SMILES: COc1ccc(NC2=NC(C)(CO)CS2)cc1 (stereo not drawn)
- T/C (dose: 50.0 mg/kg/injection, schedule: Q01DX009 (ip), vehicle: saline with Tween-80): 116 % of control
- T/C [7]: 96 % of control
- T/C (dose: 200.0 mg/kg/injection, schedule: Q01DX009 (ip), vehicle: saline with Tween-80): 107 % of control

SMILES: COc1cccc(OC)c1SSCCN
- T/C (dose: 100.0 mg/kg/injection, schedule: Q04DX002 (ip), vehicle: suspension in saline): 107 % of control
- T/C (dose: 200.0 mg/kg/injection, schedule: Q04DX002 (ip), vehicle: suspension in saline): 111 % of control

SMILES: COc1ccc(C2CCC[C@H](CCc3ccc(O)cc3)O2)cc1 (stereo partly drawn)
- T/C [8]: 97 % of control
- T/C [9]: 114 % of control
- T/C [10]: 109 % of control

SMILES: COC1(OC)OC(c2ccccc2)=C(c2ccccc2)C(C#N)(C#N)C1(OC)OC
- T/C [11]: 91 % of control
- T/C [12]: 88 % of control
- T/C [13]: 94 % of control

SMILES: CCCC1(c2ccccc2)C(=O)NCNC1=O
- T/C (dose: 20.0 mg/kg/injection, schedule: Q01DX005 (ip), vehicle: Klucel (hydroxypropylcellulose) (HPC)): 100 % of control
- T/C (dose: 40.0 mg/kg/injection, schedule: Q01DX005 (ip), vehicle: Klucel (hydroxypropylcellulose) (HPC)): 99 % of control and 109 % of control
- T/C [11]: 100 % of control and 116 % of control
- T/C [12]: 93 % of control and 95 % of control
- T/C [13]: 92 % of control

SMILES: CCC(=O)c1ccc(OCC(O)COc2c3ccccc3nc3ccccc23)cc1 (stereo not drawn)
- T/C [8]: 87 % of control
- T/C [9]: 90 % of control
- T/C [10]: 92 % of control

SMILES: Cc1ccc(C(=O)OC2C3(C)CCC(C3)C2(C)C)cc1 (stereo not drawn)
- T/C [4]: 100 % of control
- T/C [5]: 100 % of control
- T/C [6]: 94 % of control

SMILES: C=C(C)C1CC2(C)C(C)CC(OC(=O)/C(C)=C\C)CC2C(OC(=O)/C(C)=C\C)C1O (stereo not drawn)
- T/C (dose: 12.5 mg/kg/injection, schedule: Q01DX009 (ip), vehicle: Klucel (hydroxypropylcellulose) (HPC)): 86 % of control
- T/C (dose: 25.0 mg/kg/injection, schedule: Q01DX009 (ip), vehicle: Klucel (hydroxypropylcellulose) (HPC)): 96 % of control
- T/C (dose: 50.0 mg/kg/injection, schedule: Q01DX009 (ip), vehicle: Klucel (hydroxypropylcellulose) (HPC)): 96 % of control
- T/C (dose: 100.0 mg/kg/injection, schedule: Q01DX009 (ip), vehicle: Klucel (hydroxypropylcellulose) (HPC)): 100 % of control

SMILES: CCCCCCCCN1COC2CCc3ccccc3C21 (stereo not drawn)
- T/C [1]: 100 % of control
- T/C [2]: 101 % of control
- T/C [3]: 100 % of control

SMILES: C#CC1OCCCO1
- T/C (dose: 60.0 mg/kg/injection, schedule: Q01DX005 (ip), vehicle: saline): 100 % of control
- T/C (dose: 120.0 mg/kg/injection, schedule: Q01DX005 (ip), vehicle: saline): 106 % of control

SMILES: Cc1ccccc1N1C(=O)C(=O)C(c2nc3ccccc3s2)C(=O)C1=O
- T/C [4]: 99 % of control
- T/C [5]: 98 % of control
- T/C [6]: 97 % of control

— PubChem BioAssay AID330 (DTP/NCI, 2004)
